# Reference: ChEMBL document CHEMBL1806384, “Identification of benzofuran-4,5-diones as novel and selective non-hydroxamic acid, non-peptidomimetic based inhibitors of human peptide deformylase” (Bioorg Med Chem Lett, 2011)
# Key:
# [1] = molecular target: T1, Peptide deformylase, mitochondrial (Homo sapiens, UniProt Q9HBH1); experiment: Inhibition of human peptide deformylase after 1 hr by fluorescence polarization based competition assay
# T1 sequence (Q9HBH1 whole entry): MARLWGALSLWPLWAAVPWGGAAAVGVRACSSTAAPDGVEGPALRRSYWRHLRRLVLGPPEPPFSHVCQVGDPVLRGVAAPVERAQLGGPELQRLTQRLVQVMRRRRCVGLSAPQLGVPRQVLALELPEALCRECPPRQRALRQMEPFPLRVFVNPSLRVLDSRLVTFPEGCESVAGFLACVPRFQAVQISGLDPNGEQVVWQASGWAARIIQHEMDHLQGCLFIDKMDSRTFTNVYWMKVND
# Peptide deformylase = molecular target: T2, Peptide deformylase (Escherichia coli, UniProt Q9JN24); experiment: Inhibition of Escherichia coli peptide deformylase after 1 hr by fluorescence polarization based competition assay
# T2 sequence (Q9JN24 whole entry): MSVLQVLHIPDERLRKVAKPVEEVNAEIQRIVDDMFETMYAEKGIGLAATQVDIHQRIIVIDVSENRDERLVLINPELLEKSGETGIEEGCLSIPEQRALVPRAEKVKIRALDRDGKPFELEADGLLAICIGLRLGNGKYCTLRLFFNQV
# [2] = molecular target: T3, Peptide deformylase, mitochondrial (Homo sapiens) (UniProt Q9HBH1); experiment: Inhibition of human peptide deformylase at 100 uM after 1 hr by fluorescence polarization based competition assay
# T3 sequence (whole entry): T1 sequence (Q9HBH1 whole entry)
# [3] = molecular target: T4, Peptide deformylase (Escherichia coli) (UniProt Q9JN24); experiment: Inhibition of Escherichia coli peptide deformylase at 100 uM after 1 hr by fluorescence polarization based competition assay
# T4 sequence (whole entry): T2 sequence (Q9JN24 whole entry)
# [4] = molecular target: T5, Aminopeptidase N (Sus scrofa) (UniProt P15145); experiment: Inhibition of porcine kidney microsomal aminopeptidase N at 100 uM after 1 hr by fluorescence polarization based competition assay
# T5 sequence (whole entry): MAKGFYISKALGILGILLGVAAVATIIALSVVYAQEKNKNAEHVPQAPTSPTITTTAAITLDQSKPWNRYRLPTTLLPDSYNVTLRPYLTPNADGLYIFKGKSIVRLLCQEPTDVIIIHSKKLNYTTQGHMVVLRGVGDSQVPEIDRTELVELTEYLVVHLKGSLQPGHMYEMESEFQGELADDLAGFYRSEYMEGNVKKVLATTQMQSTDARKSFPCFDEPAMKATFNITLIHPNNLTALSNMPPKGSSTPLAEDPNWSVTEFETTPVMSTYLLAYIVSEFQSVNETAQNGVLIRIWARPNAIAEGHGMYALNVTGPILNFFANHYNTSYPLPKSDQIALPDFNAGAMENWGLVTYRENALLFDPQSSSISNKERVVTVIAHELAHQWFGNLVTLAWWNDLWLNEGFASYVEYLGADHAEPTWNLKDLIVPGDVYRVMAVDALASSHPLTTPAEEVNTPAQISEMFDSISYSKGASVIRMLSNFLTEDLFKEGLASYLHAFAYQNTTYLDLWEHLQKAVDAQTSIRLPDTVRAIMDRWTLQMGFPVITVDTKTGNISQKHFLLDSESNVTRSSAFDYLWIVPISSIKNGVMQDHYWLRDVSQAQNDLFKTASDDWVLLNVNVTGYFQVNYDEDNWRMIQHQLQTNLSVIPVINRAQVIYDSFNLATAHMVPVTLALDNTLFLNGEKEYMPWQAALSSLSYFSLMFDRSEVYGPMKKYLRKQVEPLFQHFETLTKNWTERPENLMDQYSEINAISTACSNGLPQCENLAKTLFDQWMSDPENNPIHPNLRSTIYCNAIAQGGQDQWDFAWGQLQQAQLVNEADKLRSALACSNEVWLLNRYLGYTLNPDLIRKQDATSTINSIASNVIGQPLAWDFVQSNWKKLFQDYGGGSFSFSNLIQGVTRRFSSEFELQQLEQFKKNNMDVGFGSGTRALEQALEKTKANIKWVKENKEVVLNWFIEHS
# [5] = molecular target: T6, Interstitial collagenase (Homo sapiens) (UniProt P03956); experiment: Inhibition of human recombinant MMP1 at 100 uM after 1 hr by fluorescence polarization based competition assay
# T6 sequence (whole entry): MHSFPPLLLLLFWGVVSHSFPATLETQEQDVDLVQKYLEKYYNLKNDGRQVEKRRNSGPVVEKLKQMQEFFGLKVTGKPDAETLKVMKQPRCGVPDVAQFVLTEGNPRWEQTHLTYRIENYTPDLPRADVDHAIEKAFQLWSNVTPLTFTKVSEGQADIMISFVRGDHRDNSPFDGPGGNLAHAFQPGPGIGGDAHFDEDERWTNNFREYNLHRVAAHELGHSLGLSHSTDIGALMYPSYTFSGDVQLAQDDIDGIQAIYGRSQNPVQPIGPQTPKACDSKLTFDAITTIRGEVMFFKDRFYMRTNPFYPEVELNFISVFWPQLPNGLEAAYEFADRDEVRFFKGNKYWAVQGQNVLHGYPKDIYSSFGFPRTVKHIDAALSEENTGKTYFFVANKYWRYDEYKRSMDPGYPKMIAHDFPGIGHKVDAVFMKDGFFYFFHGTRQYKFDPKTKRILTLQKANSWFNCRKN
# HL-60 [6] = experiment: Cytotoxicity against human HL60 cells; assay type: functional, cell-based
# HL-60 [7] = experiment: Cytotoxicity against human vincristine-resistant HL60 cells; assay type: functional, cell-based
# Jurkat = experiment: Cytotoxicity against human Jurkat cells; assay type: functional, cell-based
# MOLT-3 = experiment: Cytotoxicity against human MOLT3 cells; assay type: functional, cell-based
# [8] = Cytotoxicity against human ALL3 cells; assay type: functional, cell-based
# [9] = Cytotoxicity against human Meso47 cells; assay type: functional, cell-based
# Staphylococcus aureus = experiment: Antibacterial activity against Staphylococcus aureus ATCC 29213; assay type: functional
# [10] = tested on: Staphylococcus epidermidis; experiment: Antibacterial activity against Staphylococcus epidermidis ATCC 12228; assay type: functional
# Streptococcus pyogenes = experiment: Antibacterial activity against Streptococcus pyogenes ATCC 19615; assay type: functional
# Enterococcus faecalis = experiment: Antibacterial activity against Enterococcus faecalis ATCC 29212; assay type: functional
# Enterococcus faecium = experiment: Antibacterial activity against Enterococcus faecium ATCC 19434; assay type: functional
# Streptococcus pneumoniae = experiment: Antibacterial activity against Streptococcus pneumoniae ATCC 6301; assay type: functional
# Haemophilus influenzae = experiment: Antibacterial activity against Haemophilus influenzae ATCC 49766; assay type: functional
# Citrobacter freundii = experiment: Antibacterial activity against Citrobacter freundii ATCC 8090; assay type: functional
# Enterobacter cloacae = experiment: Antibacterial activity against Enterobacter cloacae ATCC 13047; assay type: functional
# Escherichia coli = experiment: Antibacterial activity against Escherichia coli ATCC 25922; assay type: functional
# Cutibacterium acnes = experiment: Antibacterial activity against Propionibacterium acnes ATCC 11827; assay type: functional
# Bacteroides fragilis = experiment: Antibacterial activity against Bacteroides fragilis ATCC 25285; assay type: functional
# Candida albicans = experiment: Antifungal activity against Candida albicans ATCC 90028; assay type: functional
# [11] = Cytotoxicity against human CWR22 cells; assay type: functional, cell-based
# Y79 = experiment: Cytotoxicity against human Y79 cells; assay type: functional, cell-based
# HEK293 = experiment: Cytotoxicity against human HEK293 cells; assay type: cell-based
# [12] = molecular target: T3, Peptide deformylase, mitochondrial (Homo sapiens); experiment: Inhibition of human peptide deformylase at 10 uM after 1 hr by fluorescence polarization based competition assay
SMILES,IC50 [1] [µM],IC50 (Peptide deformylase) [µM],inhibition [2] [%],inhibition [3] [%],inhibition [4] [%],inhibition [5] [%],IC50 (HL-60 [6]) [µM],IC50 (HL-60 [7]) [µM],IC50 (Jurkat) [µM],IC50 (MOLT-3) [µM],IC50 [8] [µM],IC50 [9] [µM],IC50 [11] [µM],IC50 (Y79) [µM],IC50 (HEK293) [µM],further results
COc1cc(C(=O)c2coc3c2C(=O)C(=O)C(Cl)=C3Cl)cc(OC)c1OC,25,> 100,100,27,50,32,36,55,5.9,7,49,100,,,,
C[C@@H](O)[C@H]1C(=O)N2C(C(=O)O)=C(SCCNC=N)C[C@H]12 [IMIPENEM ANHYDROUS],,,,,,,,,,,,,,,,MIC (Staphylococcus aureus): ≤ 0.12 µg/mL; MIC [10]: ≤ 0.12 µg/mL; MIC (Streptococcus pyogenes): ≤ 0.12 µg/mL; MIC (Enterococcus faecalis): 0.5 µg/mL; MIC (Enterococcus faecium): 2 µg/mL; MIC (Streptococcus pneumoniae): ≤ 0.12 µg/mL; MIC (Haemophilus influenzae): 1 µg/mL; MIC (Citrobacter freundii): 1 µg/mL; MIC (Enterobacter cloacae): 1 µg/mL; MIC (Escherichia coli): ≤ 0.12 µg/mL; MIC (Cutibacterium acnes): ≤ 0.12 µg/mL; MIC (Bacteroides fragilis): ≤ 0.12 µg/mL; MIC (Candida albicans): > 64 µg/mL
COc1ccc(C(=O)c2coc3c2C(=O)C(=O)C=C3Br)cc1,15,> 100,100,26,64,8,10,38,12,11,35,100,46,63,,
COc1ccc(C(=O)c2coc3c2C(=O)C(=O)C(Br)=C3Br)cc1,65,> 100,100,22,41,23,53,100,55,40,70,100,70,,100,
COc1ccc(C(=O)c2coc3c2C(=O)C(=O)C(Br)=C3)cc1,32,> 100,100,5,22,26,48,,20,4,48,,,100,54,inhibition [12]: 90%
COc1ccc(C(=O)c2coc3c2C(=O)C(=O)C(Cl)=C3Cl)cc1OC,6.1,,100,63,99,46,,100,,,,,,,100,
COc1ccc(C(=O)c2coc3c2C(=O)C(=O)C(Br)=C3Br)cc1OC,10,> 100,100,53,96,46,42,64,28,25,36,100,100,100,100,
COc1ccc(C(=O)c2coc3c2C(=O)C(=O)C(Cl)=C3Cl)cc1,15,> 100,88,1,50,0,10,43,6.1,4.1,27,100,50,66,30,MIC (Staphylococcus aureus): > 64 µg/mL; MIC [10]: > 64 µg/mL; MIC (Streptococcus pyogenes): > 64 µg/mL; MIC (Enterococcus faecalis): > 64 µg/mL; MIC (Enterococcus faecium): > 64 µg/mL; MIC (Streptococcus pneumoniae): 16 µg/mL; MIC (Haemophilus influenzae): > 64 µg/mL; MIC (Citrobacter freundii): > 64 µg/mL; MIC (Enterobacter cloacae): > 64 µg/mL; MIC (Escherichia coli): > 64 µg/mL; MIC (Cutibacterium acnes): > 64 µg/mL; MIC (Bacteroides fragilis): > 64 µg/mL; MIC (Candida albicans): > 64 µg/mL
